# Measured values: patent US4716225A, “Radioopaque sugar derivatives and a method of metabolic mapping using the same” (priority 1985, dated 1987)
# “Also recorded” adds a separate entry of the source. Like-named read-outs stand apart in the source and are kept apart here.
# Legend:
# [1] = tested on: blood/brain barrier saturable carrier of glucose; details: cited from earlier work
# [2] = Observation of side effects after injection into mice, rats, and dogs; type: in vivo; details: in the concentrations described
# Method: This is the region associated with limb and tail movement in the dog. […] Thus, the accumulation can be made to be selective.
# (§1) Gross Toxicology. In order to be economical with the product, the gross toxicology of 6-IG was first determined in mice and rats. Enough material was injected in a volume of 0.1 ml into the tail vein to raise the blood concentration to 10^-3, 10^-2, and 10^-1 M, (0.02-2.11 g/kg). As an osmotic control, equimolar amounts of α-D-galactopyranose were injected into age matched animals.
# (§2) Mongrel dogs (40-50 lbs) were injected intravenously with a bolus of α-D-galactose sufficient to raise the blood concentration to a level of 10^-2 M. They were then required to walk from the animal facility to the CAT scanner, approximately 10 minutes, where they were anesthetized. Anesthesia was induced with thiamytal (lmg/kg) and the animal was intubated with a cuffed endotrachial tube. Following induction, anesthesia was maintained with a gaseous mixture of Halothane, nitrous oxide and oxygen.
# brain [3] = experiment: Feasibility calculation of brain concentration of 6-iodo-D-galactose; set-up: species or system human
# From the text: It appears feasible to achieve such concentrations in, for example, brain tissue, by administering a sufficient amount of 6-iodo-D-galactose to obtain an initial blood concentration of about 10^-2 M in the patient.
# However, it is proposed to use 6-iodo-D-galactose or other such 2-, 5- or 6-substituted hexoses. […] But the uptake of galactose relative to 2-deoxyglucose is 31%. Therefore, it is estimated that the total brain concentration of 6-iodo-D-galactose is approximately 20%×0.31, or 6% of the initial blood concentration. When the initial blood concentration is 10^-2 M, final brain concentration would approximate 6×10^-4 M. To achieve this, it is necessary to inject approximately 15 grams of iodogalactose. [formula]
# An adult has a blood volume of approximately 4-5 L, so to achieve the desired concentration of 10^-2 M (moles per liter) of 6-iodo-galactosewhose formula weight is 290 g/mole will require:
# wt=(5 liter)(1 X10^-2 mole/liter)(290 g/mole)=14 g.
# Thus, the criterion of having a brain concentration within the range of 10^-4 to 10^-3 M is met. Although this concentration is the lower limit of detection, it should not deleteriously affect the clarity of the brain CAT scan. […]
# brain [4] = experiment: CAT scanning of dog brain after injection of contrast medium; type: in vivo
# Method: as §2
# (§3) The time elapsed from injection to the start of the scan was approximately 1 hour. CAT scanning data were recorded on tape and served as a background control. Upon completion of scanning, the dog was recovered from anesthesia and returned to the animal facility, where routine care was resumed.
# (§4) This procedure was repeated one day later; however, 6-IG was injected to an initial blood concentration of 10^-2 M. Nine days and 33 days following the injection, repeat scans were performed to ensure that the contrast medium had cleared.
# The dog's brains were scanned by CAT in sequential slices in 3 mm. increments. […] The arrow indicates the regions where contrast was observed.
# [5] = Gross toxicology after intravenous (tail vein) injection in mice and rats; type: in vivo
# Method: as §1
# 6-IG was injected intravenously into 20 g male mice and equivalent amounts of α-D-galactopyranose were injected into age-matched controls. […] Three days post-injection, the animals were killed by ether inhalation and autopsied.
# [6] = Observation of side effects after intravenous injection in dogs; type: in vivo, Mongrel dogs
# Method: as §2, §3, §4
# brain [7] = details: 0.5 mg FDG injection, cited from earlier work
compound,measurement,setting,value
OC[C@H]1OC(O)C[C@@H](O)[C@@H]1O (stereo partly drawn) [2-deoxyglucose],crossing of blood/brain barrier,[1],cross the blood/brain barrier by the same saturable carrier as glucose
"O[C@@H]1[C@@H](O)[C@@H](O)O[C@H](CI)[C@@H]1O [6-IG, 6-iodo-6-deoxy-α-D-galactopyranose]",obvious side effects,[2],do not produce any obvious side effects
same,estimated total brain concentration as percent of initial blood concentration,brain [3]; calculated as 20%×0.31,~6%
same,concentration,"brain [3]; initial blood concentration 10^-2 M, read-out: estimated final brain concentration",~600 µM
same,"contrast accumulation in the cortical area, posterior portion of frontal lobe","brain [4]; 1 hour post-injection, initial blood concentration 10^-2 M",accumulated in the cortical area of the posterior portion of the frontal lobe within one hour after injection; also recorded: beginning of accumulation as early as 1 hour post-injection
same,contrast in pareital region and other areas of the brain,brain [4]; 9 days post-injection (FIG. 3),"no contrast is seen in the pareital lobe intracellular section shown in FIG. 3, nor in any other areas of the brain that were scanned; also recorded: no contrast medium has accumulated in that section of the brain"
same,"contrast accumulation in the cortical area, posterior portion of frontal lobe","brain [4]; 9 days post-injection, initial blood concentration 10^-2 M",greater contrast is seen in the same region 9 days post-injection; also recorded: greater contrast in the same cortical regions
same,clearance of contrast medium,"brain [4]; 33 days post-injection, initial blood concentration 10^-2 M",cleared completely
same,accumulation and clearance compared to FDG (PET),brain [4]; compared to Fluorodeoxyglucose,relatively slower
same,time of peak concentration,"brain [4]; dog brain, between 1 hour and 9 days post-injection",some time inbetween
same,clearance of the compound,"brain [4]; dog brain, present at nine days post injection",relatively slow
same,distribution of accumulation in brain,brain [4]; general statement on accumulation in dog brain,accumulates in areas of the brain that are metabolically hyperactive in response to normal stimuli
same,distribution of accumulation after digitization,"brain [4]; slice of FIG. 2C, 9 days post-injection, background subtracted",generally greatest in the cortical region
same,immediate effects of injection on the animals,"[5]; 20 g male mice, i.v., max 2.11 g 6-IG/kg or equivalent amount of α-D-galactopyranose",no apparent immediate effects on the animals
same,gross findings at autopsy,"[5]; mice, three days post-injection, i.v., max 2.11 g 6-IG/kg",no gross findings
same,apparent side effects,"[6]; dogs, i.v., initial blood concentration 10^-2 M",Neither the control nor the iodinated injection medium had any apparent side effects
"OC[C@H]1O[C@H](O)[C@H](O)[C@@H](O)[C@H]1O [α-D-galactopyranose, reference compound]",gross findings at autopsy,"[5]; in vivo, iv",no gross findings
same,immediate effects of injection on the animals,"[5]; in vivo, iv",no apparent immediate effects on the animals
same,uptake relative to 2-deoxyglucose,[1],31%
same,crossing of blood/brain barrier,[1]; same saturable carrier as glucose,cross the blood/brain barrier by the same saturable carrier as glucose
same,apparent side effects,"[6]; dog, in vivo, iv",Neither the control nor the iodinated injection medium had any apparent side effects
Fluorodeoxyglucose [FDG],brain concentration of FDG,brain [7]; after 40 minutes accumulation time,25 ng/cc
same,brain concentration as percent of initial blood concentration,"brain [7]; human, 40 min",20%
same,concentration,"brain [7]; read-out: molar brain concentration of FDG, after 40 minutes, brain cell volume 1 L",0.138 µM
